Reference: patent publication US10081609B2, “Compounds for inducing proliferation and differentiation of cells, and methods of use thereof” (The Broad Institute, Inc., priority 2013, dated 2018)

Key:
[1] = tested on: human primary hepatocytes; assay: High-throughput liver platform, primary screening: hepatocyte proliferation by automated high-content imaging (hepatocyte nuclei numbers); type: cell-based; settings: primary screening
Method: In order to avoid species-specific differences and cell line mutations, the screen was conducted with human primary hepatocytes. Traditionally, chemical screening on such cells has been hindered by their availability in large quantities as well as their rapid loss of viability and phenotype in vitro. Recent advances in cryopreservation technologies allowed enough primary human cells to be stored for screening; these cells are maintained through co-cultivation with non-parenchymal cells. Co-cultures of primary human hepatocytes with murine embryonic J2-3T3 fibroblasts were recently shown to maintain normal hepatocyte phenotype for weeks. These in vitro platforms consisted of hepatocytes surrounded by a co-planar population of fibroblasts. While sufficient for stabilizing hepatocyte functions in vitro, such platforms may limit normal hepatocyte expansion due to contact inhibition. Thus, for this screen, a sparse population of hepatocytes was co-cultivated on top of a confluent feeder layer of J2-3T3 fibroblasts within 384-well plates (FIG. 1A top). This screening platform stabilized hepatocyte phenotypic functions in vitro (FIG. 1A bottom) and was compatible with two separate high-throughput readouts developed for this screen.
The primary readout detected hepatocyte proliferation via automated high-content imaging. This assay quantified hepatocyte nuclei numbers, using nuclear morphologies to separate the hepatocyte and fibroblast subpopulations that co-exist within the screening platform. When visualized with Hoechst stain, hepatocyte nuclei were smaller and more uniform in texture while fibroblast nuclei were larger and punctated (FIG. 1A bottom). Leveraging this distinction, automated image analyses was developed that utilized machine learning algorithms to classify nuclei types and tabulate hepatocyte nuclei numbers. […] Besides quantifying hepatocyte nuclei that have completed mitosis, the number of nuclei in the process of mitosis were also quantified. Two additional analysis pipelines were built to detect nuclear morphologies consistent with cells undergoing metaphase and anaphase.
FIG. 1B top summarizes the workflow of the screen. Primary screening was done on human primary hepatocytes, preconditioned for seven days by non-parenchymal cells in the screening platform. Upon stabilization in vitro, cultures were treated with the chemical library for 48 hours. All compounds were tested in duplicates, at a single concentration of 15 μM. This single concentration was selected via a pilot screen of ˜2,000 small molecules. All 12,480 small molecules were initially tested on a single donor of cryopreserved hepatocytes (donor a) in order to eliminate noise from donor-to-donor variability. Following compound treatment, media supernatants were collected for functional analyses via ELISA and cultures were fixed in 4% paraformaldehyde for proliferation analyses via imaging.
To identify proliferation hits, three image-based readouts—one each to quantify the number of (1) hepatocyte nuclei in interphase, (2) nuclei in metaphase and (3) nuclei in anaphase—were integrated. z Scores were converted into p values, which were then used to generate ranked lists of compounds based on the efficacy and consistency of effects across the different proliferation readouts. Efficacy was assessed by the product of p values (pprod=pinter×pmeta×pana); consistency was evaluated by the maximum of p values (pmax=max(pinter, pmeta, pana). Compounds were considered proliferation hits if pprod<1×10^−6 and pmax<0.25. Functional hits were selected by an ELISA […]. Compounds with ELISA z>3.0 were eliminated as toxic. 93 compounds met all hit selection criteria, qualifying as Functional Proliferation Hits (FPH); FIG. 1B bottom illustrates the types of compounds that constituted this set of hits.

[2] = tested on: primary human hepatocytes; assay: Expansion of primary human hepatocytes from six additional cell sources (Ki67/albumin staining, FACS); type: cell-based
Method: On day seven, the number of hepatocytes was quantified by FACS analysis (FIG. 6B). Day one untreated controls was added to the bar graph for reference.

[3] = biological target: FMS (Homo sapiens, UniProt P07333); assay: Kinome analysis (panel of kinases); type: biochemical
FMS, sequence (P07333 20-972, species assumed): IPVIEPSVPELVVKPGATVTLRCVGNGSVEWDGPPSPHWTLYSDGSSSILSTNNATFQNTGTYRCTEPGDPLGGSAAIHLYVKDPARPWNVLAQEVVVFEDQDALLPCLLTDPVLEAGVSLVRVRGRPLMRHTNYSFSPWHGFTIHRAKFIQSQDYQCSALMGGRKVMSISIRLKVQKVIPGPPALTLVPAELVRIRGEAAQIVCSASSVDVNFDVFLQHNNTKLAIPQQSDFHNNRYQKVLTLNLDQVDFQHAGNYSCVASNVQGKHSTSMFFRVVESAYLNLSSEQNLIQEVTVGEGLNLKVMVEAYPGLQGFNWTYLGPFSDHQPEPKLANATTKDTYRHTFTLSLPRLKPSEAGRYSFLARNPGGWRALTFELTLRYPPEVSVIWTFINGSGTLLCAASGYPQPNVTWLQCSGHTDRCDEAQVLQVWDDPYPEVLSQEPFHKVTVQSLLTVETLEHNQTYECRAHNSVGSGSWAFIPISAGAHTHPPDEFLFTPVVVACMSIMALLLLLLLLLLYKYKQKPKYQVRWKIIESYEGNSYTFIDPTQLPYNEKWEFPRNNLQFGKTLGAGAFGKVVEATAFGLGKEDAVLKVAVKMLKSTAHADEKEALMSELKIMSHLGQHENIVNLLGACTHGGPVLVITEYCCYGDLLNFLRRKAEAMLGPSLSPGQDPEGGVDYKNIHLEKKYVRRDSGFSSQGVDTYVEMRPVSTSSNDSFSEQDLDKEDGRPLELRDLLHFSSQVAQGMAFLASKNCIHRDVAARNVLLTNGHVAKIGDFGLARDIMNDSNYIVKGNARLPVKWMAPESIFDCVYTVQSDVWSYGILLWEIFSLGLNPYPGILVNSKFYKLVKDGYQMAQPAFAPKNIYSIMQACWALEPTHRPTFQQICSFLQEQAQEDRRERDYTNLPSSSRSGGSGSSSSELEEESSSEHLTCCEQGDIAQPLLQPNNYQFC
Method: (§1) Selected compounds of the invention (FPH1 and FPH2; both at 1 μM concentration) were screened against a panel of kinases (FIG. 17).

[4] = biological target: IGF-1R (Homo sapiens, UniProt P08069); assay: Kinome analysis (panel of kinases); type: biochemical
IGF-1R, sequence (P08069 31-1367, species assumed): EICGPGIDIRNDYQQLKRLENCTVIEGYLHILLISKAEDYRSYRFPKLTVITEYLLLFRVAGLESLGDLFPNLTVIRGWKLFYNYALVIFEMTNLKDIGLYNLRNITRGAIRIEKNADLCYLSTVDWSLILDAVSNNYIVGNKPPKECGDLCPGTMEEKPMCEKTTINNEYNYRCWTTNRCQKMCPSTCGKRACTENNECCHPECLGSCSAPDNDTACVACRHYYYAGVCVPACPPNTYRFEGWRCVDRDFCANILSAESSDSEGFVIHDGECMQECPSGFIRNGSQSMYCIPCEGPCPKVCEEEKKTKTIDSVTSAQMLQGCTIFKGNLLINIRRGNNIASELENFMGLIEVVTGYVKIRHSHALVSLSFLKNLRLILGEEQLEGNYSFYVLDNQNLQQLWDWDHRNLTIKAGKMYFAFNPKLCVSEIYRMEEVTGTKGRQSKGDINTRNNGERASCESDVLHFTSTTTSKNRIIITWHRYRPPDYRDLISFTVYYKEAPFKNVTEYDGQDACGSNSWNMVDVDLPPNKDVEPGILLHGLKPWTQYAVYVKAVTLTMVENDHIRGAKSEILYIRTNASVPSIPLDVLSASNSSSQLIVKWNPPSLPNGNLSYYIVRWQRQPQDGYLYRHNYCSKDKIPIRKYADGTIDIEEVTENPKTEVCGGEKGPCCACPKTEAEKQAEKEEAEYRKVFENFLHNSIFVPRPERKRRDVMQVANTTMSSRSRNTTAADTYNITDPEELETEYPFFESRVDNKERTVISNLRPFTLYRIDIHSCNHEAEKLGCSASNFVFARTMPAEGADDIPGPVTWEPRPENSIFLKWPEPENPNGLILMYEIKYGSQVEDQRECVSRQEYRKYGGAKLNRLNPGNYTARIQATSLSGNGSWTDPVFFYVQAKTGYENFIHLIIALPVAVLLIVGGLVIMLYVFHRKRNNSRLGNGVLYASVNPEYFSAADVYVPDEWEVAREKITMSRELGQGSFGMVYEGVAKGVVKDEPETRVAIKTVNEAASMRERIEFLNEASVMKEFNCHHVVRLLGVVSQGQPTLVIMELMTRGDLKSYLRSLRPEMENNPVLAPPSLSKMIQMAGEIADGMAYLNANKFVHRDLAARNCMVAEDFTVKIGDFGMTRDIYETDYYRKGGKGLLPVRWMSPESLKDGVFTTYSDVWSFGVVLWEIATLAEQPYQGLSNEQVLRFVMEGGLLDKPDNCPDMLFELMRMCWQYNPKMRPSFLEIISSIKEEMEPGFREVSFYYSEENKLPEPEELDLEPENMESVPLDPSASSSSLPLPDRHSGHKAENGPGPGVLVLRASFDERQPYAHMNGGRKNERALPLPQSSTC
Method: as §1

[5] = tested on: PI3KCγ; assay: Kinome analysis (panel of kinases); type: biochemical; settings: 1 μM
Method: as §1

[6] = biological target: CK1 γ2 (Homo sapiens, UniProt P78368); assay: Kinome analysis (panel of kinases); type: biochemical
Method: as §1

[7] = biological target: eEF-2K (Homo sapiens, UniProt O00418); assay: Kinome analysis (panel of kinases); type: biochemical
Method: as §1

[8] = biological target: EphB4 (Homo sapiens, UniProt P54760); assay: Kinome analysis (panel of kinases); type: biochemical
Method: as §1

[9] = biological target: GRK1 (Homo sapiens, UniProt Q15835); assay: Kinome analysis (panel of kinases); type: biochemical
Method: as §1

[10] = biological target: Pim1 (Homo sapiens, UniProt P11309); assay: Kinome analysis (panel of kinases); type: biochemical
Method: as §1

[11] = biological target: MAPKAPKV (PRAK) (Homo sapiens, UniProt Q8IW41); assay: Kinome analysis (panel of kinases); type: biochemical; settings: read-out: MAPKAPKV (PRAK) inhibition
MAPKAPKV (PRAK), sequence (Q8IW41 whole entry, species assumed): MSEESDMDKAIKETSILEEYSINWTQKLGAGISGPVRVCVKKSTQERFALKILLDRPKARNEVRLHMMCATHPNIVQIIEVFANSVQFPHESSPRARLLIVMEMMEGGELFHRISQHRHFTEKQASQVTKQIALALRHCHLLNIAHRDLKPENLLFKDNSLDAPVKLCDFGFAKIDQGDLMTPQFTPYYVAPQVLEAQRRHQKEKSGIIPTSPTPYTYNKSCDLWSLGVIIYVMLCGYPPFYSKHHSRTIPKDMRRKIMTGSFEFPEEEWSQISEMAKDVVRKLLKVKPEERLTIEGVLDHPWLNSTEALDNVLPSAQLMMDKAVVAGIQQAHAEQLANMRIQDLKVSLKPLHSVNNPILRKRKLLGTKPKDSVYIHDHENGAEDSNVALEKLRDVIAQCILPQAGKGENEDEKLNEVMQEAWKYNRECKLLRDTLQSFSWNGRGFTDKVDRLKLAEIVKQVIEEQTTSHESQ
Method: as §1

[12] = biological target: KDR (Homo sapiens, UniProt P35968); assay: Kinome analysis (panel of kinases); type: biochemical
KDR, sequence (P35968 20-1356, species assumed): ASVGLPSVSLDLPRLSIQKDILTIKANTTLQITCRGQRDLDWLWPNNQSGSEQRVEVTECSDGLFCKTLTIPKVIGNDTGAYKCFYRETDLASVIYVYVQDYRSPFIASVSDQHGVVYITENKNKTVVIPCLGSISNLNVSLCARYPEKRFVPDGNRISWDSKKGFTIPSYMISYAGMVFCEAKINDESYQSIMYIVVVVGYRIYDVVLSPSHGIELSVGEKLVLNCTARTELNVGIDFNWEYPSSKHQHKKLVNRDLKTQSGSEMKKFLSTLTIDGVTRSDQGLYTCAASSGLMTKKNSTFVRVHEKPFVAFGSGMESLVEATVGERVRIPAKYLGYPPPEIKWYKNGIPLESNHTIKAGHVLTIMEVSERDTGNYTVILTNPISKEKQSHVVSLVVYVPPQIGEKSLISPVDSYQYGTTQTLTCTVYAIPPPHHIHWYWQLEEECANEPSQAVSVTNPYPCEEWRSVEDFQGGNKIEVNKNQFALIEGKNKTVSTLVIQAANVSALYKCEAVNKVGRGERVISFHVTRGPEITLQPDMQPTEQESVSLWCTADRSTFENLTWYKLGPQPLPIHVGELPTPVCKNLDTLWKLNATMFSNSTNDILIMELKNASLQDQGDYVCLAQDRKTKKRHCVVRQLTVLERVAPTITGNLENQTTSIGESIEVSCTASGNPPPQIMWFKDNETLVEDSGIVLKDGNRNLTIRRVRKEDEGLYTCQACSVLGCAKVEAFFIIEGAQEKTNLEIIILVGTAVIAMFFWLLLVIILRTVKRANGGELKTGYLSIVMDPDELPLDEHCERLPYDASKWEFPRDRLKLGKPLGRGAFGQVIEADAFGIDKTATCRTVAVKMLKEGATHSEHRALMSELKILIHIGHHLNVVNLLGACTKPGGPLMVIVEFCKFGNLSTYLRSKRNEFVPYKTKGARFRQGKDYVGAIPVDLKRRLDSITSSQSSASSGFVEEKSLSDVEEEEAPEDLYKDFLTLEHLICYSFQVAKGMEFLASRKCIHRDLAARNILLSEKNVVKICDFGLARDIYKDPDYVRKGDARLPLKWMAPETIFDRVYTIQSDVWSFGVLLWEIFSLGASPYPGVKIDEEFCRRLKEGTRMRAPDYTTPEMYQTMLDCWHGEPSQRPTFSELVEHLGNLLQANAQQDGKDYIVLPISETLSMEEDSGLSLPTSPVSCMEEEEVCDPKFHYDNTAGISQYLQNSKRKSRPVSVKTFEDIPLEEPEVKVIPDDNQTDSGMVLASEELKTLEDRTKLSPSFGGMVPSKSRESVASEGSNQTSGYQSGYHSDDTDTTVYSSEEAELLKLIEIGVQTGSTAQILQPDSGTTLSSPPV
Method: as §1

[13] = biological target: MAPKAP-KII (Homo sapiens, UniProt P49137); assay: Kinome analysis (panel of kinases); type: biochemical
MAPKAP-KII, sequence (P49137 whole entry): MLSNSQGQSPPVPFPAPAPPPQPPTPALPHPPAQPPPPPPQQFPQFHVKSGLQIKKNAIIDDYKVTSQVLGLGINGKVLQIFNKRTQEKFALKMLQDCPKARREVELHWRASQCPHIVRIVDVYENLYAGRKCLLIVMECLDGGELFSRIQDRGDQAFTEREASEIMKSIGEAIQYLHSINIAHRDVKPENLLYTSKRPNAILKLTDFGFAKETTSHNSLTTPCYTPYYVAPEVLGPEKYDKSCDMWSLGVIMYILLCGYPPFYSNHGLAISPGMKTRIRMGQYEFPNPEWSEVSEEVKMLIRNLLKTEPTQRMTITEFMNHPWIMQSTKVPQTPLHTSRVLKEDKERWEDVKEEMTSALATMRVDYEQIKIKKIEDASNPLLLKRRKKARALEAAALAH
Method: as §1

[14] = biological target: PAK5 (Homo sapiens, UniProt Q9P286); assay: Kinome analysis (panel of kinases); type: biochemical
Method: as §1

[15] = biological target: MSSK1 (Homo sapiens, UniProt Q9UPE1); assay: Kinome analysis (panel of kinases); type: biochemical
MSSK1, sequence (Q9UPE1 whole entry, species assumed): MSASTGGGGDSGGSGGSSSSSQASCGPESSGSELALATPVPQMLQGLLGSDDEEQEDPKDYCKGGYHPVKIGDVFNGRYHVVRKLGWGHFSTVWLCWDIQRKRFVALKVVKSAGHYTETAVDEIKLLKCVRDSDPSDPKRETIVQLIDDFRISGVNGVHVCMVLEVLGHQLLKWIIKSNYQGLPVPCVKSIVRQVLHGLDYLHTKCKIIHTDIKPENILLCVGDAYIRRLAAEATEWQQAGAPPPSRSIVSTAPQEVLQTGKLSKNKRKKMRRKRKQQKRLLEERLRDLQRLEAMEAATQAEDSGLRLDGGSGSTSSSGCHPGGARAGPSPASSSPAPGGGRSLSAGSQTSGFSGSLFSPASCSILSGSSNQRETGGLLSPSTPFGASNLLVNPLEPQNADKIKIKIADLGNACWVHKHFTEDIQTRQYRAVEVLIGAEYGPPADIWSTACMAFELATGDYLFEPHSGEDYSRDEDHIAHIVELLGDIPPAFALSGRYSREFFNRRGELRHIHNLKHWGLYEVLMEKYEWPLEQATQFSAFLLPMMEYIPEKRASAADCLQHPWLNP
Method: as §1

[16] = biological target: SAPK4 (Homo sapiens, UniProt O15264); assay: Kinome analysis (panel of kinases); type: biochemical
Method: as §1

[17] = tested on: human primary hepatocytes; assay: Expansion of human primary hepatocytes on growth-arrested J2-3T3 feeder layer in 12-well plates (imaging, cell counting, FACS, biochemical assays); type: cell-based
Method: Culture media were collected and frozen at −20° C. until analysis. Albumin content was measured through sandwich ELISA assays (MP Biomedicals, Fitzgerald, Bethyl Laboratories) using horseradish peroxidase detection and 3,3′,5,5′-tetramethylbenzidine (TMB, Fitzgerald Industries) as a substrate. Urea concentration was determined colorimetrically using diacetylmonoxime with acid and heat (Stanbio Labs). To quantify CYP450 activity, at 48 hours after small molecule exposure, cultures were incubated with substrates (coumarin from Sigma for CYP2A6, luciferin-IPA from Promega for CYP3A4) for 4 hours at 37° C. Incubation medium was collected and metabolite concentration quantified via luminescence, or fluorescence after hydrolization of potential metabolite conjugates by β-glucuronidase/arylsulfatase (Roche, Ind.).
To characterize the effects of FPH1 and FPH2 outside of the screening platform, human primary hepatocytes were seeded at a density of ˜20,000 cells/cm^2, into standard 12-well tissue culture plates on top of a feeder layer of growth-arrested J2-3T3s. These cells were cultured for 7 days, during which time a single compound/FPH was supplemented into the media on days 1 and 5 at a concentration of 20 μM. Treated hepatocyte colonies increased in size over time, with more hepatocytes populating each colony (FIG. 2D, 2E).
To characterize the degree of proliferation and to obtain a doubling time, cells were counted and fluorescence-activated cell sorting (FACS) was performed (FIG. 2H). For cell counting, FPH-treated cells were trypsinized after seven days in culture. The number of cells was quantified using an automated cell counter. The number of hepatocytes was obtained by subtracting the number of fibroblasts from the total number of cells found in the corresponding co-culture. For FACS analysis, growth arrested J2-3T3s were labeled with CM-DiI prior to initiation of co-culture so that hepatocytes can be identified via negative selection. To enable cell counting during FACS, each sample was supplemented with fluorescent counting beads. […] Over 7 days, FPH1 induced hepatocyte doublings at a rate that is consistent with reported liver regeneration kinetics in vivo.
To assess the phenotype of the treated hepatocytes, imaging, biochemical analyses and gene expression profiling were performed. […] Albumin secretion and urea synthesis, a surrogate marker of nitrogen metabolism, were both stable throughout FPH treatment (FIG. 3A top and middle). Metabolic functions were assessed via examinations of cytochrome P450 (CYP450) activity and canalicular transport. […] Gene expression profiling confirmed that there are no significant differences between FPH-treated and untreated hepatocytes (FIG. 3C).

## CCn1cc(NC(=S)Nc2cc(Cl)ccc2OC)c(C(N)=O)n1 [FPH1, 4-(3-(5-chloro-2-methoxyphenyl)thioureido)-1-ethyl-1H-pyrazole-3-carboxamide]
[1]
  number of nuclei undergoing mitosis: elevated
[1]; 15 μM, 48 hours
  increase in hepatocyte nuclei numbers during primary screening: 1.5 ×
[2]; day seven, all donors
  number of hepatocytes by FACS: increase
[2]; six additional cell sources, six days in culture
  Ki67 staining co-localized with albumin labeled hepatocytes: increased
[3]
  inhibition at 1 µM: 23%
  remaining activity at 1 µM: 77%
[4]
  inhibition at 1 µM: 21%
  remaining activity at 1 µM: 79%
[5]
  PI3KCγ inhibition: 6.7-18.4%
[6]
  inhibition at 1 µM: 6.7 to 18.4%
[7]
  inhibition at 1 µM: 6.7 to 18.4%
[8]
  inhibition at 1 µM: 6.7 to 18.4%
[9]
  inhibition at 1 µM: 6.7 to 18.4%
[10]
  inhibition at 1 µM: 6.7 to 18.4%
[11]
  inhibition at 1 µM: 6.7 to 18.4%
[12]
  inhibition at 1 µM: 6.7 to 18.4%
[13]
  inhibition at 1 µM: 6.7 to 18.4%
[14]
  inhibition at 1 µM: 6.7 to 18.4%
[15]
  inhibition at 1 µM: 6.7 to 18.4%
[16]
  inhibition at 1 µM: 6.7 to 18.4%
[17]; 20 μM on days 1 and 5, 7 days culture
  increase in the area of albumin-positive colonies: up to 6.6 fold
[17]; 7 days
  degree of proliferation (cell counting, FACS): strongest proliferation inducer
